Reference: patent publication EP4603105A1, “PHARMACEUTICAL COMPOSITION CONTAINING CYCLIC COMPOUND HAVING SELECTIVE KRAS INHIBITORY EFFECT AGAINST HRAS AND NRAS” (CHUGAI SEIYAKU KABUSHIKI KAISHA, priority 2022, dated 2024)
pIC50: −log10 of the molar value.

Columns and labels:
[1] = test system: human lung cancer strain NCI-H441; type: cell-based
Method in brief: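 Proliferation was scored by […] measured after the reagent was added to cultures kept at 37°C in 5% carbon dioxide.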

[2] = molecular target: GDP-bound NRAS wild-type protein (Homo sapiens, UniProt P01111); experiment: Binding to NRAS by surface plasmon resonance (SPR), KD and KD ratio to KRAS; details: ratio of KD for GDP-bound NRAS wild-type protein to KD for KRAS
Method in brief: (§1)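 SPR, 30°C: Avi-biotin RAS·GDP captured via Biotin CAPture (~100–300 RU); running buffer HBS pH 7.4, 1 mM DTT, 10 mM MgCl2, 0.01% Tween 20, 10 µM GDP, 4% DMSO. Single-cycle kinetics, 100 µL/min, 75 s injections; 1:1 model → KD.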

HRAS wild-type protein = HRAS wild-type protein (Homo sapiens, UniProt P01112); experiment: Binding to HRAS by surface plasmon resonance (SPR), KD and KD ratio to KRAS; details: ratio of KD for HRAS wild-type protein to KD for KRAS
Method in brief: as §1

Chain of HRAS wild-type protein (P01112 whole entry): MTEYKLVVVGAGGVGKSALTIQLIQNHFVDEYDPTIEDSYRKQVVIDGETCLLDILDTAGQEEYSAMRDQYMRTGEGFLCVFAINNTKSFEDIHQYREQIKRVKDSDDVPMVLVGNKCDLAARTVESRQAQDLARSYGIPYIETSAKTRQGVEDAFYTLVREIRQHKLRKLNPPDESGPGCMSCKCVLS
Chain of GDP-bound NRAS wild-type protein (P01111 whole entry): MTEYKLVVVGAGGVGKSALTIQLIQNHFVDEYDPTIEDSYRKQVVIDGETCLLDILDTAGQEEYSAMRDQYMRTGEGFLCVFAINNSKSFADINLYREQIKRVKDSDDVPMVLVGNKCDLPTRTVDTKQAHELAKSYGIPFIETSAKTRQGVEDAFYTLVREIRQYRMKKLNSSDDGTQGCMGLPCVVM

## CCO[C@@H]1C[C@H]2C(=O)NC3(CC(F)(F)C3)C(=O)N(C)[C@@H](C3CCCC3)C(=O)N(C)[C@H](C(=O)N3CCOCC3)CC(=O)N(C)[C@@H](CC(C)C)C(=O)N[C@@H]([C@@H](C)CC)C(=O)N(C)CC(=O)N(C)[C@H]3C[C@H]4C[C@H]4CN(C3=O)[C@@H](Cc3ccc(C(F)(F)F)cc3)C(=O)N(C)CC(=O)N[C@@H](CCc3cc(F)c(C(F)(F)F)c(F)c3)C(=O)N2C1 [PP0831]
[1]
  pIC50: 8.43
[2]
  NRAS /KRAS: C (A compound having a KD ratio of 0.1 or more and less than 3 is denoted as C)
HRAS wild-type protein
  HRAS /KRAS: C (A compound having a KD ratio of 0.1 or more and less than 3 is denoted as C)

## CCO[C@@H]1C[C@H]2C(=O)NC3(CCC3)C(=O)N(C)[C@@H](C3CCCC3)C(=O)N(C)[C@H](C(=O)N3CCOCC3)CC(=O)N(C)[C@@H](CC(C)C)C(=O)N[C@@H]([C@@H](C)CC)C(=O)N(C)CC(=O)N(C)[C@H]3CC=CCN(C3=O)[C@@H](Cc3ccc(C(F)(F)F)cc3)C(=O)N(C)CC(=O)N[C@@H](CCc3cc(F)c(C(F)(F)F)c(F)c3)C(=O)N2C1 [PP0832]
[1]
  pIC50: 7.67
[2]
  NRAS /KRAS: C (A compound having a KD ratio of 0.1 or more and less than 3 is denoted as C)
HRAS wild-type protein
  HRAS /KRAS: C (A compound having a KD ratio of 0.1 or more and less than 3 is denoted as C)

## CC[C@H](C)[C@@H]1NC(=O)[C@H](COC)N(C)C(=O)C[C@@H](C(=O)N2CCOCC2)N(C)C(=O)[C@H](C2CCCC2)N(C)C(=O)C2(CCC2)NC(=O)[C@@H]2C[C@H](OC)CN2C(=O)[C@H](CCc2cc(F)c(C(F)(F)F)c(F)c2)NC(=O)CN(C)C(=O)[C@H](Cc2ccc(C(F)(F)F)cc2)N2CCCCC[C@@H](C2=O)N(C)C(=O)CN(C)C1=O [PP0836]
[1]
  pIC50: 6.44
[2]
  NRAS /KRAS: B (a compound having 3 or more and less than 10 is denoted as B)
HRAS wild-type protein
  HRAS /KRAS: B (a compound having 3 or more and less than 10 is denoted as B)

## CC[C@H](C)[C@@H]1NC(=O)[C@H](COC)N(C)C(=O)C[C@@H](C(=O)N2CCOCC2)N(C)C(=O)[C@H](C2CCCC2)N(C)C(=O)C2(CCC2)NC(=O)[C@@H]2C[C@@H](OC)CN2C(=O)[C@H](CCc2cc(F)c(C(F)(F)F)c(F)c2)NC(=O)CN(C)C(=O)[C@H](Cc2ccc(C(F)(F)F)cc2)N2CCCCC[C@@H](C2=O)N(C)C(=O)CN(C)C1=O [PP0837]
[1]
  pIC50: 7.20
[2]
  NRAS /KRAS: B (a compound having 3 or more and less than 10 is denoted as B)
HRAS wild-type protein
  HRAS /KRAS: B (a compound having 3 or more and less than 10 is denoted as B)

## CCCO[C@@H]1C[C@H]2C(=O)NC3(CCC3)C(=O)N(C)[C@@H](C3CCCC3)C(=O)N(C)[C@H](C(=O)N3CCOCC3)CC(=O)N(C)[C@@H](COC)C(=O)N[C@@H]([C@@H](C)CC)C(=O)N(C)CC(=O)N(C)[C@H]3CCCCCN(C3=O)[C@@H](Cc3ccc(C(F)(F)F)cc3)C(=O)N(C)CC(=O)N[C@@H](CCc3cc(F)c(C(F)(F)F)c(F)c3)C(=O)N2C1 [PP0838]
[1]
  pIC50: 7.30
[2]
  NRAS /KRAS: B (a compound having 3 or more and less than 10 is denoted as B)
HRAS wild-type protein
  HRAS /KRAS: B (a compound having 3 or more and less than 10 is denoted as B)

## CC[C@H](C)[C@@H]1NC(=O)[C@H](COC)N(C)C(=O)C[C@@H](C(=O)N2CCOCC2)N(C)C(=O)[C@H](C2CCCC2)N(C)C(=O)C2(CCC2)NC(=O)[C@@H]2C[C@@H](OCC(C)C)CN2C(=O)[C@H](CCc2cc(F)c(C(F)(F)F)c(F)c2)NC(=O)CN(C)C(=O)[C@H](Cc2ccc(C(F)(F)F)cc2)N2CCCCC[C@@H](C2=O)N(C)C(=O)CN(C)C1=O [PP0839]
[1]
  pIC50: 6.91
[2]
  NRAS /KRAS: B (a compound having 3 or more and less than 10 is denoted as B)
HRAS wild-type protein
  HRAS /KRAS: B (a compound having 3 or more and less than 10 is denoted as B)

## CC[C@H](C)[C@@H]1NC(=O)[C@H](COC)N(C)C(=O)C[C@@H](C(=O)N2CCOCC2)N(C)C(=O)[C@H](C2CCCC2)N(C)C(=O)C2(CCC2)NC(=O)[C@@H]2CCN2C(=O)[C@H](CCc2cc(F)c(C(F)(F)F)c(F)c2)NC(=O)CN(C)C(=O)[C@H](Cc2ccc(C(F)(F)F)cc2)N2CCCCC[C@@H](C2=O)N(C)C(=O)CN(C)C1=O [PP0840]
[1]
  pIC50: 6.24
[2]
  NRAS /KRAS: B (a compound having 3 or more and less than 10 is denoted as B)
HRAS wild-type protein
  HRAS /KRAS: B (a compound having 3 or more and less than 10 is denoted as B)

## CCO[C@@H]1C[C@H]2C(=O)NC3(CCCC3)C(=O)N(C)[C@@H](C3CCCC3)C(=O)N(C)[C@H](C(=O)N3CCOCC3)CC(=O)N(C)[C@@H](COC)C(=O)N[C@@H]([C@@H](C)CC)C(=O)N(C)CC(=O)N(C)[C@H]3CCCCCN(C3=O)[C@@H](Cc3ccc(C(F)(F)F)cc3)C(=O)N(C)CC(=O)N[C@@H](CCc3cc(F)c(C(F)(F)F)c(F)c3)C(=O)N2C1 [PP0841]
[1]
  pIC50: 6.95
[2]
  NRAS /KRAS: B (a compound having 3 or more and less than 10 is denoted as B)
HRAS wild-type protein
  HRAS /KRAS: B (a compound having 3 or more and less than 10 is denoted as B)

## CCO[C@@H]1C[C@H]2C(=O)NC3(CC=CC3)C(=O)N(C)[C@@H](C3CCCC3)C(=O)N(C)[C@H](C(=O)N3CCOCC3)CC(=O)N(C)[C@@H](COC)C(=O)N[C@@H]([C@@H](C)CC)C(=O)N(C)CC(=O)N(C)[C@H]3CCCCCN(C3=O)[C@@H](Cc3ccc(C(F)(F)F)cc3)C(=O)N(C)CC(=O)N[C@@H](CCc3cc(F)c(C(F)(F)F)c(F)c3)C(=O)N2C1 [PP0842]
[1]
  pIC50: 6.76
[2]
  NRAS /KRAS: B (a compound having 3 or more and less than 10 is denoted as B)
HRAS wild-type protein
  HRAS /KRAS: B (a compound having 3 or more and less than 10 is denoted as B)

## CCO[C@@H]1C[C@H]2C(=O)NC3(CC(F)(F)C3)C(=O)N(C)[C@@H](C3CCCC3)C(=O)N(C)[C@H](C(=O)N3CCOCC3)CC(=O)N(C)[C@@H](COC)C(=O)N[C@@H]([C@@H](C)CC)C(=O)N(C)CC(=O)N(C)[C@H]3CCCCCN(C3=O)[C@@H](Cc3ccc(C(F)(F)F)cc3)C(=O)N(C)CC(=O)N[C@@H](CCc3cc(F)c(C(F)(F)F)c(F)c3)C(=O)N2C1 [PP0843]
[1]
  pIC50: 7.41
[2]
  NRAS /KRAS: B (a compound having 3 or more and less than 10 is denoted as B)
HRAS wild-type protein
  HRAS /KRAS: B (a compound having 3 or more and less than 10 is denoted as B)

## CCO[C@@H]1C[C@H]2C(=O)NC3(CC(C)(C)C3)C(=O)N(C)[C@@H](C3CCCC3)C(=O)N(C)[C@H](C(=O)N3CCOCC3)CC(=O)N(C)[C@@H](COC)C(=O)N[C@@H]([C@@H](C)CC)C(=O)N(C)CC(=O)N(C)[C@H]3CCCCCN(C3=O)[C@@H](Cc3ccc(C(F)(F)F)cc3)C(=O)N(C)CC(=O)N[C@@H](CCc3cc(F)c(C(F)(F)F)c(F)c3)C(=O)N2C1 [PP0844]
[1]
  pIC50: 7.30
[2]
  NRAS /KRAS: B (a compound having 3 or more and less than 10 is denoted as B)
HRAS wild-type protein
  HRAS /KRAS: B (a compound having 3 or more and less than 10 is denoted as B)
